The source of these data is ChEMBL document CHEMBL1145543, “X-ray snapshot of the mechanism of inactivation of human neutrophil elastase by 1,2,5-thiadiazolidin-3-one 1,1-dioxide derivatives” (J Med Chem, 2008).

One assay has as its target T1, Neutrophil elastase (Homo sapiens, UniProt P08246).
T1 sequence (P08246 whole entry): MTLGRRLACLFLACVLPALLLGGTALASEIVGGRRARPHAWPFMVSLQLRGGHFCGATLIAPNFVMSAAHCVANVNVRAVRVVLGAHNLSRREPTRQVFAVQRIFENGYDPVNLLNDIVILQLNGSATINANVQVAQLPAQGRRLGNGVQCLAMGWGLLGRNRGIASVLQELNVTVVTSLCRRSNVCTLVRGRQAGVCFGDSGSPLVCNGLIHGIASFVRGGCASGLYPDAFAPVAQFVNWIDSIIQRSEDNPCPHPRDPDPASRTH
Kind of assay: Inhibition human neutrophil elastase.

The species entered for a further assay is Bos taurus. As to the kind of experiment: Inhibition of bovine trypsin. The following applies: TDE = time-dependent effect.
In assay [1] the target is T2, Neutrophil elastase (Homo sapiens) (UniProt P08246).
T2 sequence (whole entry): T1 sequence (P08246 whole entry)
As to the kind of experiment: Ratio of Kinact to KI for human neutrophil elastase.

SMILES strings stand for the structures.

The term Ki denotes the dissociation constant of the complex between target and ligand, obtained from inhibition or displacement. A higher Ki goes with a looser hold on the target.

`CCCC1C(=O)N(COC(=O)c2c(Cl)cccc2Cl)S(=O)(=O)N1C` (stereo not drawn): the affinity on Neutrophil elastase, expressed as Ki, was 5.47 nM. The Activity result in the assay listed under Bos taurus is “tde”. In assay [1], the Ratio is 8.9 10^6/M/s.
